This passage reports Activity and Crop_yield results from ChEMBL document CHEMBL3045186, “Assessments of crop losses in rice ecosystems due to stem borer damage (Lepidoptera: Pyralidae)” (2006).

Common to all, as to type: functional
For experiment [1], the system named is Lepidoptera. Kind of experiment: Insecticidal activity against Lepidoptera infected rice plant assessed as dead heart damage at 1 kg ai/ha applied as granules on 30 to 50 days post planting (reference value: 11.87%).
The subject of experiment [2] is Lepidoptera. Kind of experiment: Insecticidal activity against Lepidoptera infected rice plant assessed as increase in grain yield at 1 kg ai/ha applied as granules on 30 to 50 days post planting (reference value: 28%).
Experiment [3] concerns Lepidoptera. In words: Insecticidal activity against Lepidoptera infected rice plant assessed as white earhead damage at 1 kg ai/ha applied as granules on 30 to 50 days post planting (reference value: 12.17%).
For experiment [4], the system named is Lepidoptera. Kind of experiment: Insecticidal activity against Lepidoptera infected rice plant assessed as dead heart damage at 0.75 kg ai/ha applied as emulsified concentrates through foliar spray on 30 to 50 days post planting (reference value: 11.87%).
The subject of experiment [5] is Lepidoptera. Kind of experiment: Insecticidal activity against Lepidoptera infected rice plant assessed as increase in grain yield at 0.75 kg ai/ha applied as emulsified concentrates through foliar spray on 30 to 50 days post planting (reference value: 28%).
Experiment [6] has as its system Lepidoptera. In words: Insecticidal activity against Lepidoptera infected rice plant assessed as white earhead damage at 0.75 kg ai/ha applied as emulsified concentrates through foliar spray on 30 to 50 days post planting (reference value: 12.17%).
Experiment [7] concerns Lepidoptera. In words: Insecticidal activity against Lepidoptera infected rice plant assessed as white earhead damage (reference value: 12.17%).
Experiment [8] has as its system Lepidoptera. Kind of experiment: Insecticidal activity against Lepidoptera infected rice plant assessed as increase in grain yield (reference value: 28%).
Experiment [9] has as its system Lepidoptera. Kind of experiment: Insecticidal activity against Lepidoptera infected rice plant assessed as dead heart damage (reference value: 11.87%).

For `CNC(=O)Oc1cccc2c1OC(C)(C)C2` [CARBOFURAN], the Activity in the experiment with Lepidoptera [1] was found to be 4.15%; in the experiment with Lepidoptera [3], 5.14%. The Crop_yield with Lepidoptera [2] came out at 35%.

Regarding `CCOP(=S)(OCC)Oc1nc(Cl)c(Cl)cc1Cl` [CHLORPYRIFOS], the Activity in the experiment with Lepidoptera [1] is reported as 5.39%; with Lepidoptera [4], 7.26%; in the experiment on Lepidoptera [6] it was 6.72%; with Lepidoptera [3], 6.18%. In addition, the Crop_yield with Lepidoptera [5] was 36%; in the experiment with Lepidoptera [2], 37%.

With `CCOP(=O)(/N=C1\SCC(C)S1)OCC` (stereo unspecified) [CYTROLANE], the Activity with Lepidoptera [1] turned out to be 3.63%; in the experiment with Lepidoptera [3], 3.14%. Also, in the experiment on Lepidoptera [2], the Crop_yield is 32%.

Turning to `CCOP(=S)(OCC)Oc1cc(C)nc(C(C)C)n1` [DIMPYLATE], the Activity with Lepidoptera [4] is on record as 8.14%; with Lepidoptera [6], 3.19%. Also, the Crop_yield with Lepidoptera [5] is 42%.

In the case of `CNC(=O)/C=C(\C)OP(=O)(OC)OC` [MONOCROTOPHOS], the Activity in the experiment on Lepidoptera [7] is given as 6.31%; in the experiment with Lepidoptera [9], 4.76%. Also, in the experiment with Lepidoptera [8], the Crop_yield turned out to be 37%.

Regarding `CCOP(=S)(OCC)Oc1cnc2ccccc2n1` [QUINALPHOS], the Activity was found to be 6.33% with Lepidoptera [7] and 4.12% in the experiment on Lepidoptera [9]. Moreover, the Crop_yield with Lepidoptera [8] is reported as 28%.
